Results published in the NIST ThermoML archive (doi:10.1016/j.jct.2015.09.016).
Numbers after ± are expanded uncertainties.

How the values were obtained:
[1] = 101.33 kPa, Liquid; for electrical conductivity: Alternating current cell with electrodes; for viscosity: Falling or rolling sphere viscometry; for speed of sound: Sing-around technique in a fixed-path interferometer; for mass density: Vibrating tube method
[2] = refractive index (Na D-line) (dimensionless); conditions: 303.15 K; 101.33 kPa; Liquid; Standard Abbe refractometry
[3] = wn = mass fraction of the nth substance listed; conditions: 303.15 K, 100 kPa, Liquid; for electrical conductivity: Alternating current cell with electrodes; for viscosity: Falling or rolling sphere viscometry; for speed of sound: Frequency=3 MHz, Sing-around technique in a fixed-path interferometer; for mass density: Vibrating tube method

CCCC[NH2+]CCO.O=C([O-])C(F)(F)F [N-(2-hydroxyethyl)butan-1-aminium 2,2,2-trifluoroacetate] gave an electrical conductivity ([1]; 303.15 K) of 0.0391 ± 0.0016 S/m, a viscosity ([1]; 303.15 K) of 211.7 ± 11 mPa·s and a speed of sound ([1]; 303.15 K) of 1282.6 ± 5 m/s. The mass density ([1]; 303.15 K) was 1203.34 ± 6.5 kg/m3, the electrical conductivity ([1]; 308.15 K) was 0.0494 ± 0.002 S/m and the viscosity ([1]; 308.15 K) was 171.1 ± 7.8 mPa·s. It also gave a speed of sound ([1]; 308.15 K) of 1270 ± 5 m/s, a mass density ([1]; 308.15 K) of 1198.07 ± 6.5 kg/m3 and an electrical conductivity ([1]; 313.15 K) of 0.0596 ± 0.0024 S/m. For the same compound, the viscosity ([1]; 313.15 K) was 135.3 ± 5.6 mPa·s, the speed of sound ([1]; 313.15 K) was 1257.7 ± 5 m/s and the mass density ([1]; 313.15 K) was 1194.18 ± 6.5 kg/m3. It also gave an electrical conductivity ([1]; 318.15 K) of 0.0703 ± 0.0028 S/m, a viscosity ([1]; 318.15 K) of 104.6 ± 4.3 mPa·s and a speed of sound ([1]; 318.15 K) of 1245.7 ± 5 m/s. For the same compound, the mass density ([1]; 318.15 K) was 1190.28 ± 6.5 kg/m3, the electrical conductivity ([1]; 323.15 K) was 0.0811 ± 0.0032 S/m and the viscosity ([1]; 323.15 K) was 81.7 ± 3.6 mPa·s. For the same compound, the speed of sound ([1]; 323.15 K) was 1233.9 ± 5 m/s, the mass density ([1]; 323.15 K) was 1186.37 ± 6.5 kg/m3 and the electrical conductivity ([1]; 328.15 K) was 0.0916 ± 0.0037 S/m. It also gave a viscosity ([1]; 328.15 K) of 64.7 ± 3.4 mPa·s, a speed of sound ([1]; 328.15 K) of 1222.4 ± 5 m/s and a mass density ([1]; 328.15 K) of 1182.48 ± 6.5 kg/m3. For the same compound, the electrical conductivity ([1]; 333.15 K) was 0.103 ± 0.0041 S/m, the viscosity ([1]; 333.15 K) was 52.3 ± 3.3 mPa·s and the speed of sound ([1]; 333.15 K) was 1211 ± 5 m/s. For the same compound, the mass density ([1]; 333.15 K) was 1178.6 ± 6.5 kg/m3, the electrical conductivity ([1]; 338.15 K) was 0.116 ± 0.0046 S/m and the viscosity ([1]; 338.15 K) was 42.8 ± 3.3 mPa·s. The speed of sound ([1]; 338.15 K) was 1199.8 ± 5 m/s, the mass density ([1]; 338.15 K) was 1174.73 ± 6.5 kg/m3 and the electrical conductivity ([1]; 343.15 K) was 0.128 ± 0.0051 S/m. For the same compound, the viscosity ([1]; 343.15 K) was 35.6 ± 3.2 mPa·s, the speed of sound ([1]; 343.15 K) was 1188.7 ± 5 m/s and the mass density ([1]; 343.15 K) was 1170.87 ± 6.5 kg/m3. The refractive index [2] was 1.4126 ± 0.0012.

Work on CCCC[NH2+]CCO.O=C([O-])C(F)(F)F [N-(2-hydroxyethyl)butan-1-aminium 2,2,2-trifluoroacetate] + O yielded an electrical conductivity ([3]; w2 = 0.002186) of 0.0391 ± 0.0016 S/m, an electrical conductivity ([3]; w2 = 0.003652) of 0.0393 ± 0.0016 S/m and an electrical conductivity ([3]; w2 = 0.004819) of 0.0394 ± 0.0016 S/m. The electrical conductivity ([3]; w2 = 0.006342) was 0.0396 ± 0.0016 S/m, the electrical conductivity ([3]; w2 = 0.007483) was 0.0398 ± 0.0016 S/m and the viscosity ([3]; w2 = 0.002186) was 211.7 ± 11 mPa·s. It also gave a viscosity ([3]; w2 = 0.003864) of 211.1 ± 11 mPa·s, a viscosity ([3]; w2 = 0.005373) of 210.4 ± 11 mPa·s and a viscosity ([3]; w2 = 0.006759) of 209.8 ± 11 mPa·s. For the same compound, the viscosity ([3]; w2 = 0.008675) was 209.1 ± 11 mPa·s, the speed of sound ([3]; w2 = 0.002186) was 1282.6 ± 5 m/s and the speed of sound ([3]; w2 = 0.003864) was 1282.9 ± 5 m/s. The speed of sound ([3]; w2 = 0.005373) was 1283.2 ± 5 m/s, the speed of sound ([3]; w2 = 0.006759) was 1283.4 ± 5 m/s and the speed of sound ([3]; w2 = 0.008675) was 1283.7 ± 5 m/s. It also gave a mass density ([3]; w2 = 0.002186) of 1203.34 ± 6.5 kg/m3, a mass density ([3]; w2 = 0.003864) of 1203.51 ± 6.5 kg/m3 and a mass density ([3]; w2 = 0.005373) of 1203.68 ± 6.5 kg/m3. For the same compound, the mass density ([3]; w2 = 0.006759) was 1203.81 ± 6.5 kg/m3 and the mass density ([3]; w2 = 0.008675) was 1204 ± 6.5 kg/m3.

For CCCC[NH2+]CCO.O=[N+]([O-])[O-] [N-(2-hydroxyethyl)butan-1-aminium nitrate], the electrical conductivity ([1]; 303.15 K) was 0.0583 ± 0.0023 S/m, the viscosity ([1]; 303.15 K) was 272.1 ± 16 mPa·s and the speed of sound ([1]; 303.15 K) was 1608.3 ± 5.1 m/s. For the same compound, the mass density ([1]; 303.15 K) was 1114.69 ± 6.4 kg/m3, the electrical conductivity ([1]; 308.15 K) was 0.0701 ± 0.0028 S/m and the viscosity ([1]; 308.15 K) was 202.9 ± 10 mPa·s. The speed of sound ([1]; 308.15 K) was 1595.7 ± 5.1 m/s, the mass density ([1]; 308.15 K) was 1111.58 ± 6.4 kg/m3 and the electrical conductivity ([1]; 313.15 K) was 0.085 ± 0.0034 S/m. For the same compound, the viscosity ([1]; 313.15 K) was 154 ± 6.6 mPa·s, the speed of sound ([1]; 313.15 K) was 1583.5 ± 5 m/s and the mass density ([1]; 313.15 K) was 1108.47 ± 6.4 kg/m3. For the same compound, the electrical conductivity ([1]; 318.15 K) was 0.0982 ± 0.0039 S/m, the viscosity ([1]; 318.15 K) was 119.2 ± 4.8 mPa·s and the speed of sound ([1]; 318.15 K) was 1571.5 ± 5 m/s. It also gave a mass density ([1]; 318.15 K) of 1105.35 ± 6.4 kg/m3, an electrical conductivity ([1]; 323.15 K) of 0.115 ± 0.0046 S/m and a viscosity ([1]; 323.15 K) of 93.3 ± 3.9 mPa·s. It also gave a speed of sound ([1]; 323.15 K) of 1559.7 ± 5 m/s, a mass density ([1]; 323.15 K) of 1102.25 ± 6.4 kg/m3 and an electrical conductivity ([1]; 328.15 K) of 0.136 ± 0.0054 S/m. It also gave a viscosity ([1]; 328.15 K) of 74.1 ± 3.5 mPa·s, a speed of sound ([1]; 328.15 K) of 1548.1 ± 5 m/s and a mass density ([1]; 328.15 K) of 1099.15 ± 6.4 kg/m3. For the same compound, the electrical conductivity ([1]; 333.15 K) was 0.16 ± 0.0064 S/m, the viscosity ([1]; 333.15 K) was 59.6 ± 3.3 mPa·s and the speed of sound ([1]; 333.15 K) was 1536.7 ± 5 m/s. For the same compound, the mass density ([1]; 333.15 K) was 1096.07 ± 6.4 kg/m3, the electrical conductivity ([1]; 338.15 K) was 0.182 ± 0.0073 S/m and the viscosity ([1]; 338.15 K) was 48.8 ± 3.3 mPa·s. It also gave a speed of sound ([1]; 338.15 K) of 1525.4 ± 5 m/s, a mass density ([1]; 338.15 K) of 1093 ± 6.3 kg/m3 and an electrical conductivity ([1]; 343.15 K) of 0.2 ± 0.008 S/m. It also gave a viscosity ([1]; 343.15 K) of 40.6 ± 3.3 mPa·s, a speed of sound ([1]; 343.15 K) of 1514.3 ± 5 m/s and a mass density ([1]; 343.15 K) of 1089.95 ± 6.3 kg/m3. It also gave a refractive index [2] of 1.4675 ± 0.0012.

For CCCC[NH2+]CCO.O=[N+]([O-])[O-] [N-(2-hydroxyethyl)butan-1-aminium nitrate] + O, the electrical conductivity ([3]; w2 = 0.002318) was 0.0583 ± 0.0023 S/m, the electrical conductivity ([3]; w2 = 0.003573) was 0.0585 ± 0.0023 S/m and the electrical conductivity ([3]; w2 = 0.004837) was 0.0587 ± 0.0023 S/m. The electrical conductivity ([3]; w2 = 0.006108) was 0.0589 ± 0.0024 S/m, the electrical conductivity ([3]; w2 = 0.007452) was 0.0591 ± 0.0024 S/m and the viscosity ([3]; w2 = 0.002318) was 272.1 ± 16 mPa·s. For the same compound, the viscosity ([3]; w2 = 0.003967) was 271.5 ± 16 mPa·s, the viscosity ([3]; w2 = 0.005068) was 271.1 ± 16 mPa·s and the viscosity ([3]; w2 = 0.006904) was 270.5 ± 16 mPa·s. The viscosity ([3]; w2 = 0.008717) was 269.8 ± 16 mPa·s, the speed of sound ([3]; w2 = 0.002318) was 1608.3 ± 5 m/s and the speed of sound ([3]; w2 = 0.003967) was 1608.7 ± 5 m/s. For the same compound, the speed of sound ([3]; w2 = 0.005068) was 1609 ± 5 m/s, the speed of sound ([3]; w2 = 0.006904) was 1609.4 ± 5 m/s and the speed of sound ([3]; w2 = 0.008717) was 1609.8 ± 5 m/s. The mass density ([3]; w2 = 0.002318) was 1114.69 ± 6.4 kg/m3, the mass density ([3]; w2 = 0.003967) was 1114.88 ± 6.4 kg/m3 and the mass density ([3]; w2 = 0.005068) was 1115.01 ± 6.4 kg/m3. The mass density ([3]; w2 = 0.006904) was 1115.21 ± 6.4 kg/m3 and the mass density ([3]; w2 = 0.008717) was 1115.39 ± 6.4 kg/m3.
